The results in this text go back to ChEMBL document CHEMBL1201862, “PubChem BioAssay data set” (2004).

Some test systems named below: A498; BT-549; CCRF-CEM; HOP-92; Hs-578T; IGROV-1; KM12; MCF7; MDA-MB-231; OVCAR-4; OVCAR-5; OVCAR-8; PC-3; SF-295; SK-MEL-28; SNB-75; SW-620; UACC-62; SF-539.
Experiment in all cases: growth of human tumour cells (NCI), 48 h

Where a name gives a salt, the structure may show the parent alone.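 Where inhibition never reached the appropriate level, the endpoint shown equals the highest concentration tested. Otherwise, values were interpolated linearly from a five-concentration, 48-hour dose response in 96-well plates. GI50 marks 50% less growth.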 Active and inactive are the calls of the source. No stated cut-off is given here; in the data, active = GI50 up to about 1.1 µM and inactive = higher.

Regarding `COc1ccc(Cc2ccccc2C(=O)O)c2ccccc12`, the GI50 in the experiment on A498 was 22.8 µM (inactive); in the experiment on BT-549, 39.2 µM (inactive); with CCRF-CEM, 26.1 µM (inactive); in the experiment on HOP-92 it was 18.8 µM (inactive); with Hs-578T, 12.1 µM (inactive); in the experiment with IGROV-1 it was 30.6 µM (inactive). The GI50 in the experiment with KM12 is 18.7 µM (inactive); with MCF7, 38.1 µM (inactive); with MDA-MB-231, 32 µM (inactive); in the experiment on OVCAR-4 it was 36.6 µM (inactive); in the experiment on OVCAR-5 it was 24.3 µM (inactive); in the experiment on OVCAR-8 it was 28.5 µM (inactive). The GI50 is 30.6 µM (inactive) in the experiment with PC-3; 28.4 µM (inactive) in the experiment on SF-295; 25.1 µM (inactive) in the experiment with SK-MEL-28; 34.4 µM (inactive) in the experiment with SNB-75; 31.6 µM (inactive) in the experiment with SW-620; 16.3 µM (inactive) in the experiment on UACC-62.

For `Nc1nc(O)c2c(n1)NCN(CCCN1CCOCC1)C2`, the GI50 in the experiment on A498, with BT-549, in the experiment with HOP-92, with Hs-578T, in the experiment with IGROV-1 and in the experiment on KM12 was > 100 µM (inactive) in each case. Besides, the GI50 in the experiment with MCF7, in the experiment with MDA-MB-231, in the experiment on OVCAR-4, in the experiment with OVCAR-5, in the experiment with OVCAR-8 and in the experiment with PC-3 was > 100 µM (inactive) in each case. Further, the GI50 in the experiment with SF-295, in the experiment with SF-539, in the experiment with SK-MEL-28, in the experiment with SW-620 and in the experiment on UACC-62 was > 100 µM (inactive) in each case.

With `COc1ccc(-n2sc3ncc(C)cc3c2=O)cc1`, the GI50 in the experiment with BT-549 is 19.4 µM (inactive); in the experiment with CCRF-CEM it was 10.6 µM (inactive); in the experiment with HOP-92, 19.9 µM (inactive); with Hs-578T it was 30.6 µM (inactive); in the experiment on IGROV-1, 31.9 µM (inactive); with KM12, 16.1 µM (inactive). For the same compound, the GI50 was 23.7 µM (inactive) in the experiment on MCF7; 17 µM (inactive) in the experiment with MDA-MB-231; 33.4 µM (inactive) in the experiment on OVCAR-4; 20.1 µM (inactive) in the experiment on OVCAR-5; 18.2 µM (inactive) in the experiment with OVCAR-8; 15.6 µM (inactive) with PC-3. Also, the GI50 in the experiment with SF-295 was 50.1 µM (inactive); in the experiment with SK-MEL-28, 24.2 µM (inactive); in the experiment on SW-620, 33.8 µM (inactive); in the experiment with UACC-62, 17.5 µM (inactive).

For `COc1ccc(-c2cc(-c3cc(C)cc(Br)c3O)no2)cc1`, the GI50 is 3.03 µM (inactive) in the experiment on A498; 14.9 µM (inactive) in the experiment on BT-549; > 10 µM (inactive) with CCRF-CEM; 4.86 µM (inactive) with Hs-578T; 10.8 µM (inactive) in the experiment with IGROV-1; 22.2 µM (inactive) in the experiment on KM12. For the same compound, the GI50 was 15.7 µM (inactive) with MCF7; 12.4 µM (inactive) in the experiment with MDA-MB-231; 3.37 µM (inactive) in the experiment with OVCAR-4; 30.4 µM (inactive) with OVCAR-5; 4.31 µM (inactive) in the experiment on OVCAR-8; 4.44 µM (inactive) with PC-3. The GI50 in the experiment on SF-295 is 3.45 µM (inactive); with SF-539 it was 5.74 µM (inactive); in the experiment on SK-MEL-28, 18.7 µM (inactive); in the experiment with SNB-75 it was 2.86 µM (inactive); in the experiment on SW-620 it was 16.3 µM (inactive); in the experiment with UACC-62 it was 6.47 µM (inactive).

As to `CCOC(=O)C(CO)c1nc2c([nH]c1=O)c(=O)n(C)c(=O)n2C` (centres undefined), the GI50 is 0.608 µM (active) with A498; > 100 µM (inactive) in the experiment with BT-549; > 100 µM (inactive) in the experiment with CCRF-CEM; > 100 µM (inactive) with Hs-578T; > 100 µM (inactive) in the experiment with IGROV-1; > 100 µM (inactive) in the experiment on KM12. For the same compound, the GI50 with MCF7, in the experiment with MDA-MB-231, in the experiment with OVCAR-5, in the experiment with OVCAR-8, in the experiment on PC-3 and in the experiment with SF-295 was > 100 µM (inactive) throughout. Besides, the GI50 in the experiment on SF-539, in the experiment on SK-MEL-28, in the experiment with SW-620 and in the experiment on UACC-62 was > 100 µM (inactive) each time.

For the compound `COC(=O)Nc1nc2cc(C(=O)c3ccc[nH]3)ccc2[nH]1`, the GI50 in the experiment on A498 is 3.04 µM (inactive); in the experiment with BT-549, > 100 µM (inactive); in the experiment with CCRF-CEM, 0.577 µM (active); in the experiment with Hs-578T, 1.54 µM (inactive); with IGROV-1, 1.7 µM (inactive); with KM12, 0.49 µM (active). The GI50 in the experiment on MCF7 is 0.341 µM (active); in the experiment with MDA-MB-231, 20.6 µM (inactive); with OVCAR-4, > 100 µM (inactive); in the experiment with OVCAR-5 it was > 100 µM (inactive); in the experiment with OVCAR-8, 3.18 µM (inactive); in the experiment with PC-3, 0.348 µM (active). The GI50 was 0.759 µM (active) in the experiment on SF-295; 2.4 µM (inactive) in the experiment on SF-539; 0.711 µM (active) in the experiment on SK-MEL-28; 0.235 µM (active) with SNB-75; 0.359 µM (active) with SW-620; 0.425 µM (active) with UACC-62.

For the compound `CC(C)(C)OC(=O)NC(Cc1ccc(OC(C)(C)C)cc1)C(=O)N[C@H]1CC[C@H](C(=O)O)C1` (some centres undefined), the GI50 was > 100 µM (inactive) in the experiment with A498; 45 µM (inactive) in the experiment on BT-549; > 100 µM (inactive) in the experiment with CCRF-CEM; > 100 µM (inactive) in the experiment with Hs-578T; > 100 µM (inactive) in the experiment on IGROV-1; > 100 µM (inactive) in the experiment with KM12. Besides, the GI50 with MCF7 is > 100 µM (inactive); with MDA-MB-231, > 100 µM (inactive); with OVCAR-5, > 100 µM (inactive); with OVCAR-8, > 100 µM (inactive); in the experiment on PC-3, 89.1 µM (inactive); in the experiment with SF-295, > 100 µM (inactive). The GI50 in the experiment with SF-539, in the experiment on SK-MEL-28, in the experiment with SNB-75 and in the experiment with SW-620 was > 100 µM (inactive) in each case.

Turning to `CCSC1=CC(=O)c2nc3ccccc3c3ccnc1c23`, the GI50 is 12.9 µM (inactive) in the experiment on BT-549; 2.44 µM (inactive) in the experiment with CCRF-CEM; 11.4 µM (inactive) in the experiment on HOP-92; 3.14 µM (inactive) with Hs-578T; 2.72 µM (inactive) with IGROV-1; 3.9 µM (inactive) in the experiment on KM12. The GI50 in the experiment with MCF7 was 1.88 µM (inactive); with MDA-MB-231 it was 4.14 µM (inactive); with OVCAR-4 it was 2.69 µM (inactive); with OVCAR-5 it was 3.85 µM (inactive); with OVCAR-8, 2.57 µM (inactive); in the experiment with PC-3 it was 2.17 µM (inactive). Further, the GI50 in the experiment on SF-295 was 13.8 µM (inactive); in the experiment on SF-539 it was 5.43 µM (inactive); in the experiment on SK-MEL-28, 10.1 µM (inactive); in the experiment on SNB-75, 6.43 µM (inactive); in the experiment with SW-620, 2.68 µM (inactive); with UACC-62, 2.05 µM (inactive).

Regarding `Cc1cn(CCCCOC(=O)NC(CCCNC(N)=O)C(=O)O)c(=O)[nH]c1=O` (centres undefined), the GI50 with BT-549, with CCRF-CEM, with HOP-92, in the experiment with Hs-578T, in the experiment on IGROV-1 and with KM12 was > 100 µM (inactive) throughout. Also, the GI50 in the experiment on MCF7, with MDA-MB-231, in the experiment on OVCAR-4, in the experiment on OVCAR-5, with OVCAR-8 and in the experiment on PC-3 was > 100 µM (inactive) in each case. Moreover, the GI50 with SF-295, in the experiment with SF-539, in the experiment on SK-MEL-28, in the experiment with SNB-75, in the experiment on SW-620 and with UACC-62 was > 100 µM (inactive) throughout.

For `CC(=O)O[C@H]1C[C@H]2[C@@H]([C@H](OC(C)=O)C[C@@H]3CC4(CC[C@@]32C)OOC2(CCCCC2)OO4)[C@@H]2CC[C@H]([C@H](C)CCC(N)=O)[C@@]12C`, the GI50 is 6.64 µM (inactive) in the experiment with A498; 2.07 µM (inactive) in the experiment with BT-549; 1.28 µM (inactive) with CCRF-CEM; 5.47 µM (inactive) in the experiment with Hs-578T; 0.134 µM (active) with IGROV-1; 1.71 µM (inactive) with KM12. The GI50 is 2.61 µM (inactive) in the experiment on MCF7; 1.95 µM (inactive) in the experiment with MDA-MB-231; 1.78 µM (inactive) with OVCAR-4; 2.34 µM (inactive) in the experiment with OVCAR-5; 2.14 µM (inactive) in the experiment on OVCAR-8; 1.62 µM (inactive) in the experiment on PC-3. Also, the GI50 is 3.67 µM (inactive) in the experiment with SF-295; 3.13 µM (inactive) in the experiment with SF-539; 8.93 µM (inactive) with SK-MEL-28; 2.28 µM (inactive) in the experiment with SNB-75; 2.42 µM (inactive) in the experiment on SW-620; 2.7 µM (inactive) in the experiment on UACC-62.

Regarding `CN1[C@@H]2C[C@@H](OC(=O)[C@H](CO)c3ccccc3)C[C@H]1[C@@H]1O[C@@H]12` [SCOPOLAMINE HYDROBROMIDE], the GI50 in the experiment with A498, with BT-549, in the experiment on CCRF-CEM, in the experiment on HOP-92, with Hs-578T and in the experiment on IGROV-1 was > 100 µM (inactive) throughout. For the same compound, the GI50 in the experiment on KM12, in the experiment on MCF7, in the experiment with MDA-MB-231, in the experiment with OVCAR-4, with OVCAR-5 and with OVCAR-8 was > 100 µM (inactive) in each case. Moreover, the GI50 with PC-3, with SK-MEL-28, in the experiment on SW-620 and with UACC-62 was > 100 µM (inactive) throughout.
